Data taken from the supplement of paper PMC10307832.

Tests used:
Experiment in all cases: relative viability (nuclei count vs DMSO), 5 days (fraction); higher = more cells survive
Carfilzomib + Phenformin = compound: CC(C)C[C@H](NC(=O)[C@H](CCc1ccccc1)NC(=O)CN1CCOCC1)C(=O)N[C@@H](Cc1ccccc1)C(=O)N[C@@H](CC(C)C)C(=O)[C@@]1(C)CO1 [Carfilzomib] + N=C(N)NC(=N)NCCc1ccccc1 [Phenformin] (partner 250 µM)
In short: (§1)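 Relative viability is defined as nuclei in treated wells over nuclei in vehicle wells. Duplicate plates were run and medians reported. Lung cancer cell lines in 1536-well plates were dosed by pin tool one day after seeding, with one drug or with a fixed anchor-drug dose plus five library-drug doses (not always all listed) in √10 steps, and nuclei were counted after 5 days.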

Olaparib + Navitoclax = compound: O=C(c1cc(Cc2n[nH]c(=O)c3ccccc23)ccc1F)N1CCN(C(=O)C2CC2)CC1 [Olaparib] + CC1(C)CCC(c2ccc(Cl)cc2)=C(CN2CCN(c3ccc(C(=O)NS(=O)(=O)c4ccc(N[C@H](CCN5CCOCC5)CSc5ccccc5)c(S(=O)(=O)C(F)(F)F)c4)cc3)CC2)C1 [Navitoclax] (partner 0.5 µM)
In short: as §1

Carfilzomib + OSI-027 = compound: CC(C)C[C@H](NC(=O)[C@H](CCc1ccccc1)NC(=O)CN1CCOCC1)C(=O)N[C@@H](Cc1ccccc1)C(=O)N[C@@H](CC(C)C)C(=O)[C@@]1(C)CO1 [Carfilzomib] + COc1cccc2cc(-c3nc([C@H]4CC[C@H](C(=O)O)CC4)n4ncnc(N)c34)[nH]c12 [OSI-027] (partner 0.5 µM)
In short: as §1

Olaparib + Decitabine = compound: O=C(c1cc(Cc2n[nH]c(=O)c3ccccc23)ccc1F)N1CCN(C(=O)C2CC2)CC1 [Olaparib] + Nc1ncn([C@H]2C[C@H](O)[C@@H](CO)O2)c(=O)n1 [Decitabine] (partner 2 µM)
In short: as §1

Cell Line | relative viability (Carfilzomib + Phenformin; first compound 0.001 µM) | relative viability (Carfilzomib + Phenformin; first compound 0.003162 µM) | relative viability (Carfilzomib + Phenformin; first compound 0.01 µM) | relative viability (Carfilzomib + Phenformin; first compound 0.03162 µM) | relative viability (Carfilzomib + Phenformin; first compound 0.1 µM) | relative viability (Olaparib + Navitoclax; first compound 0.08 µM) | relative viability (Olaparib + Navitoclax; first compound 0.253 µM) | relative viability (Olaparib + Navitoclax; first compound 2.53 µM) | relative viability (Olaparib + Navitoclax; first compound 8 µM) | relative viability (Carfilzomib + OSI-027; first compound 0.001 µM) | relative viability (Carfilzomib + OSI-027; first compound 0.003162 µM) | relative viability (Carfilzomib + OSI-027; first compound 0.01 µM) | relative viability (Carfilzomib + OSI-027; first compound 0.03162 µM) | relative viability (Carfilzomib + OSI-027; first compound 0.1 µM) | relative viability (Olaparib + Decitabine; first compound 0.08 µM) | relative viability (Olaparib + Decitabine; first compound 0.253 µM) | relative viability (Olaparib + Decitabine; first compound 2.53 µM) | relative viability (Olaparib + Decitabine; first compound 8 µM)
201T | 0.404 | 0.482 | 0.483 | 0.464 | 0.328 | 1.18 | 1.2 | 1.19 | 1.15 | 0.749 | 0.795 | 0.884 | 0.437 | 0.31 | 0.819 | 0.68 | 0.611 | 0.632
A549 | 0.0885 | 0.231 | 0.113 | 0.0362 | 0.0257 | 1.33 | 0.991 | 0.81 | 0.597 |  |  |  |  |  | 0.119 | 0.073 | 0.0622 | 0.0462
A-427 | 0.25 | 0.464 | 0.381 | 0.116 | 0.133 | 0.946 | 0.93 | 0.526 | 0.554 | 0.47 | 0.542 | 0.395 | 0.145 | 0.132 | 0.471 | 0.478 | 0.483 | 0.404
ABC-1 | 0.235 | 0.25 | 0.236 | 0.229 | 0.185 |  |  |  |  | 0.431 | 0.289 | 0.276 | 0.158 | 0.171 | 1.07 |  | 0.836 | 0.718
BEN | 0.319 | 0.318 | 0.346 | 0.251 | 0.182 | 0.0771 | 0.0609 | 0.0668 | 0.0792 | 0.312 | 0.313 | 0.3 | 0.294 | 0.263 | 0.654 | 0.55 | 0.639 | 0.641
CAL-12T | 0.61 | 0.668 | 0.591 | 0.101 | 0.114 | 1.35 | 1.19 | 1.41 | 1.08 | 0.667 | 0.708 | 0.85 | 0.131 | 0.131 |  |  |  | 
COR-L23 | 0.442 | 0.435 | 0.404 | 0.0562 | 0.0638 | 1.12 | 0.877 | 0.713 | 0.44 | 0.455 | 0.908 | 0.762 | 0.144 | 0.0646 | 0.353 | 0.266 | 0.216 | 0.199
COR-L 105 | 0.572 | 0.391 | 0.526 | 0.261 | 0.203 | 0.781 | 0.822 | 0.574 | 0.48 | 0.805 | 0.82 | 0.699 | 0.271 | 0.191 | 0.581 | 0.618 | 0.52 | 0.512
Calu-6 |  |  |  |  |  | 0.859 | 0.741 | 0.764 | 0.506 |  |  |  |  |  |  |  |  | 
ChaGo-K-1 | 0.438 | 0.524 | 0.501 | 0.442 | 0.14 | 1.44 | 0.989 | 0.953 | 0.848 | 0.414 | 0.576 | 0.659 | 0.554 | 0.176 | 0.45 | 0.43 | 0.355 | 0.329
EBC-1 |  |  |  |  |  | 0.46 | 0.403 | 0.44 | 0.318 |  |  |  |  |  |  |  |  | 
EKVX | 0.204 | 0.24 | 0.257 | 0.114 | 0.221 | 1.1 | 0.876 | 0.97 | 0.944 | 0.689 | 0.754 | 0.834 | 0.601 | 0.315 | 0.238 | 0.276 | 0.337 | 0.276
EMC-BAC-2 | 0.52 | 0.62 | 0.572 | 0.376 | 0.199 | 1.37 | 1.1 | 0.999 | 1.01 | 0.378 | 0.448 | 0.409 | 0.242 | 0.197 | 0.931 | 0.869 | 0.669 | 0.599
EPLC-272H | 0.269 | 0.314 | 0.307 | 0.124 | 0.038 | 1.28 | 1.1 | 1.16 | 0.995 | 0.284 | 0.291 | 0.248 | 0.119 | 0.0723 | 0.478 | 0.349 | 0.302 | 0.329
H3255 | 0.395 | 0.364 | 0.441 | 0.354 | 0.321 | 0.53 | 0.426 | 0.655 | 0.437 | 0.581 | 0.536 | 0.65 | 0.584 | 0.237 | 0.548 | 0.516 | 0.621 | 0.444
HARA | 0.478 | 0.506 | 0.403 | 0.0435 | 0.0629 | 1.14 | 1.08 | 1.04 | 0.99 | 0.537 | 0.564 | 0.675 | 0.0444 | 0.0712 | 0.437 | 0.397 | 0.396 | 0.338
HCC-15 | 0.443 | 0.538 | 0.48 | 0.222 | 0.1 | 0.751 | 0.657 | 0.719 | 0.643 | 0.706 | 0.801 | 0.763 | 0.279 | 0.0802 | 0.682 | 0.479 | 0.463 | 0.344
HCC-44 | 0.169 | 0.289 | 0.145 | 0.107 | 0.122 | 0.913 | 0.941 | 0.934 | 0.933 | 0.48 | 0.564 | 0.574 | 0.338 | 0.217 | 0.812 | 0.846 | 0.783 | 0.802
HCC-78 | 0.539 | 0.683 | 0.78 | 0.668 | 0.235 | 0.977 | 0.738 | 0.819 | 0.572 | 0.332 | 0.318 | 0.387 | 0.359 | 0.227 | 0.613 | 0.562 | 0.508 | 0.455
